Assay results from ChEMBL document CHEMBL1151583, “Conformationally-restricted analogs of TXA2 antagonist SQ 33,961: Receptor binding conformation of the carboxyl sidechain” (Bioorg Med Chem Lett, 1991).

Species on record: Homo sapiens
Assay: In vitro ability to inhibit arachidonic acid induced platelet aggregation (AAIPA)
Type: functional
Conditions: read-out: I50

IC50	Compound
0.008 µM	O=C(O)CCc1ccccc1/C=C1\C2CCC(O2)C1c1nc(C(=O)NCCCCC2CCCCC2)co1 (configuration not stated)
12.7 µM	O=C(O)CCc1ccccc1/C=C1/C2CCC(O2)C1c1nc(C(=O)NCCCCC2CCCCC2)co1 (configuration not stated)
